Where a name gives a salt, the structure may show the parent alone.

The values below come from US8329687B2, “Pyridooxazepine derivative and use thereof” (Takeda Pharmaceutical Company Limited, priority 2007, dated 2012).

serotonin 5-HT2C receptor (VSV type isoform) stably expressed in CHO cell, sequence (P28335 33-458 I156V/N158S/I160V limits assumed): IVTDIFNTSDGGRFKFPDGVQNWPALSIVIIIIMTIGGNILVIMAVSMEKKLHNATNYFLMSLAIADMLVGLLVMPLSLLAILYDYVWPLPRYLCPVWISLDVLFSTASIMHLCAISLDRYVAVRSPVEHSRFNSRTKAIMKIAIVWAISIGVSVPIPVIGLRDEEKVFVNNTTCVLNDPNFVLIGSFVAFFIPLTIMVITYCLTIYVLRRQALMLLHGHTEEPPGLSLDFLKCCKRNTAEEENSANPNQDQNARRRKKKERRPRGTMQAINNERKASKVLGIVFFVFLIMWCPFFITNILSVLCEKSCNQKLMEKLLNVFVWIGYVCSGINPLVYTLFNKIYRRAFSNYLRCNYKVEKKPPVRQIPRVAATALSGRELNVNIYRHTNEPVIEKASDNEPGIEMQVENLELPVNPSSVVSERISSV

The first experiment addresses serotonin 5-HT2C receptor (VSV type isoform) stably expressed in CHO cell (Homo sapiens, UniProt P28335, I156V/I160V/N158S). As to the kind of experiment: cell-based. Format: cell-based. The conditions noted are these: 1 μM.
For the molecule `CC(Oc1ccc2c(n1)OCCNC2)C1CC1.CC(Oc1ccc2c(n1)OCCNC2)C1CC1.O=C(O)CCC(=O)O` (single isomer, unassigned; (+)) [Example 36, (+)-8-(1-cyclopropylethoxy)-2,3,4,5-tetrahydropyrido[3,2-f][1,4]oxazepine 0.5 succinate], the “ratio relative to maximum response by 5-HT (1 μM)” value (shortened to “ratio relative to maximum response”) was determined as 104.7.
On to `CC(Oc1ccc2c(n1)OCCNC2)C1CC1.CC(Oc1ccc2c(n1)OCCNC2)C1CC1.O=C(O)CCC(=O)O` (single isomer, unassigned; (-)) [Example 35, (−)-8-(1-cyclopropylethoxy)-2,3,4,5-tetrahydropyrido[3,2-f][1,4]oxazepine 0.5 succinate], for which the “ratio relative to maximum response” value was determined as 93.7.
For `CC(C)Oc1ccc2c(n1)OCCNC2.CC(C)Oc1ccc2c(n1)OCCNC2.O=C(O)CCC(=O)O` [Example 5, 8-isopropoxy-2,3,4,5-tetrahydropyrido[3,2-f][1,4]oxazepine 0.5 succinate], the “ratio relative to maximum response” value amounted to 97.7.
Still for that read-out and setting: the figure for `CC(Oc1ccc2c(n1)OCCNC2)C1CC1.CC(Oc1ccc2c(n1)OCCNC2)C1CC1.O=C(O)CCC(=O)O` (centres unmarked) [Example 16, 8-(1-cyclopropylethoxy)-2,3,4,5-tetrahydropyrido[3,2-f][1,4]oxazepine 0.5 succinate] is 98.8.

Staying with this experiment, now noted: CHO; read-out: ratio relative to maximum response by 5-HT (1 μM).
Consider `CC(C)(C)Oc1ccc2c(n1)OCCNC2` [Example 1, 8-tert-butoxy-2,3,4,5-tetrahydropyrido[3,2-f][1,4]oxazepine], for which the Emax amounted to 98.6%.
Regarding `CC(C)COc1ccc2c(n1)OCCNC2` [Example 3, 8-isobutoxy-2,3,4,5-tetrahydropyrido[3,2-f][1,4]oxazepine hydrochloride], the Emax amounted to 101%.
In the case of `CCOc1ccc2c(n1)OCCNC2` [Example 13, 8-ethoxy-2,3,4,5-tetrahydropyrido[3,2-f][1,4]oxazepine hydrochloride], the Emax was found to be 97.4%.
As for `FC1(F)CCC(Oc2ccc3c(n2)OCCNC3)CC1` [Example 23, 8-[(4,4-difluorocyclohexyl)oxy]-2,3,4,5-tetrahydropyrido[3,2-f][1,4]oxazepine hydrochloride], the Emax was 83.8%.
In the case of `CC(C)[C@H](C)Oc1ccc2c(n1)OCCNC2` [Example 24, 8-{[(1S)-1,2-dimethylpropyl]oxy}-2,3,4,5-tetrahydropyrido[3,2-f][1,4]oxazepine hydrochloride], the Emax was 94.7%.
Same read-out and setting: with `CC(C)[C@@H](C)Oc1ccc2c(n1)OCCNC2` [Example 25, 8-{[(1R)-1,2-dimethylpropyl]oxy}-2,3,4,5-tetrahydropyrido[3,2-f][1,4]oxazepine hydrochloride] the figure was 98.6%; with `CC[C@H](C)Oc1ccc2c(n1)OCCNC2` [Example 26, 8-{[(1S)-1-methylpropyl]oxy}-2,3,4,5-tetrahydropyrido[3,2-f][1,4]oxazepine hydrochloride], 97.6%.
Regarding `CC[C@@H](C)Oc1ccc2c(n1)OCCNC2` [Example 27, 8-{[(1R)-1-methylpropyl]oxy}-2,3,4,5-tetrahydropyrido[3,2-f][1,4]oxazepine hydrochloride], the Emax is 99.8%.
`c1ccc(Oc2ccc3c(n2)OCCNC3)cc1` [Example 28, 8-phenoxy-2,3,4,5-tetrahydropyrido[3,2-f][1,4]oxazepine hydrochloride]: the Emax was determined as 91.2%.
Turning to `CC(C)Sc1ccc2c(n1)OCCNC2` [Example 37, 8-(isopropylthio)-2,3,4,5-tetrahydropyrido[3,2-f][1,4]oxazepine hydrochloride], the Emax was determined as 94.5%.
